≈ marks a conversion by molar mass, not a printed value.
What was measured:
E. faecalis VRAS E305 [1] = test: agar diffusion method, inhibition zone; assay type: cell-based, Enterococcus faecalis; details: Enterococcus faecalis, VRASE305; E. faecalis VRAS E305; MH agar, 18 hours at 37° C.; per disk 10 μl crude extract, 50 μg macrolactin, 78 μg erythromycin, 30 μg vancomycin, 10 μg ampicillin
Experimental: (§1) The agar diffusion method employing Mueller-Hinton (MH) agar (Difco Laboratories) was used to determine effectiveness against bacteria and yeasts. Sterile paper disks (Schleicher & Schüell, Germany) were seeded with 10 μl crude extract or with a solution of purified macrolactin (final compound concentration on the disk 50 μg) and then placed on the surface of MH-agar plates that had been seeded beforehand with a suspension of overnight culture of the test microorganisms at a concentration of 10^5 cells/ml.

E. faecalis ATCC 29212 [2] = test: agar diffusion method, inhibition zone; assay type: cell-based, Enterococcus faecalis; details: Enterococcus faecalis, ATCC29212; E. faecalis ATCC 29212; MH agar, 18 hours at 37° C.; per disk 10 μl crude extract, 50 μg macrolactin, 78 μg erythromycin, 30 μg vancomycin, 10 μg ampicillin
Experimental: as §1

B. cepacia SCV 141 [3] = test: agar diffusion method, inhibition zone; assay type: cell-based, Burkholderia cepacia; details: Burkholderia cepacia, SCV141, MH agar, 18 hours at 37° C., per disk 10 μl crude extract, 50 μg macrolactin, 78 μg erythromycin, 10 μg ampicillin
Experimental: as §1
The B. cepacia strain used, which is a clinical isolate from a cystic fibrosis patient, forms small colonies (SCV 141).

[4] = test system: MRSA 3 (methicillin-resistant S. aureus, clinical isolate); test: agar diffusion method, inhibition zone; assay type: cell-based, Staphylococcus aureus; details: Staphylococcus aureus; MRSA 3; MH agar, 18 hours at 37° C.; per disk 10 μl crude extract, 50 μg macrolactin, 78 μg erythromycin, 30 μg vancomycin, 10 μg ampicillin
Experimental: as §1

[5] = test system: S. aureus # (own collection, methicillin-sensitive control strain); test: agar diffusion method, inhibition zone; assay type: cell-based, Staphylococcus aureus; details: Staphylococcus aureus; S. aureus # own collection; MH agar, 18 hours at 37° C.; per disk 10 μl crude extract, 50 μg macrolactin, 78 μg erythromycin, 30 μg vancomycin, 10 μg ampicillin
Experimental: as §1

[6] = test system: MRSA 2 (methicillin-resistant S. aureus, clinical isolate); test: agar diffusion method, inhibition zone; assay type: cell-based, Staphylococcus aureus; details: Staphylococcus aureus; MRSA 2; MH agar, 18 hours at 37° C.; per disk 10 μl crude extract, 50 μg macrolactin, 78 μg erythromycin, 30 μg vancomycin, 10 μg ampicillin
Experimental: as §1

S. aureus DSMZ 1104 = test: agar diffusion method, inhibition zone; assay type: cell-based, Staphylococcus aureus; details: Staphylococcus aureus, DSMZ1104; S. aureus DSMZ 1104; MH agar, 18 hours at 37° C.; per disk 10 μl crude extract, 50 μg macrolactin, 78 μg erythromycin, 30 μg vancomycin, 10 μg ampicillin
Experimental: as §1

E. faecalis VRAS E305 [7] = test: MIC / MBC in liquid culture; assay type: cell-based, Enterococcus faecalis; details: E. faecalis VRAS E305; for MIC: Enterococcus faecalis, VRASE305, read-out: MIC (minimal inhibitory concentration)
E. faecium VRAR E315 [8] = test: MIC / MBC in liquid culture; assay type: cell-based, Enterococcus faecium; details: E. faecium VRAR E315; for MIC: Enterococcus faecium, VRARE315, read-out: MIC (minimal inhibitory concentration)
MRSA 3 = test: MIC / MBC in liquid culture; assay type: cell-based, Staphylococcus aureus; details: MRSA 3; for MIC: Staphylococcus aureus, read-out: MIC (minimal inhibitory concentration)
MRSA 2 = test: MIC / MBC in liquid culture; assay type: cell-based, Staphylococcus aureus; details: MRSA 2; for MIC: Staphylococcus aureus, read-out: MIC (minimal inhibitory concentration)
B. cepacia SCV 141 [9] = test: MIC / MBC in liquid culture; assay type: cell-based, Burkholderia cepacia; details: for MIC: Burkholderia cepacia, SCV141, read-out: MIC (minimal inhibitory concentration)
From the text: (§2) 7-O-malonyl macrolactin A was not effective against some of the gram-negative bacteria tested by the inventors.

B. cepacia WT139 = test: MIC / MBC in liquid culture; assay type: cell-based, Burkholderia cepacia; details: for MIC: Burkholderia cepacia, read-out: MIC (minimal inhibitory concentration)
From the text: as §2

E. faecalis ATCC 29212 [10] = test: MIC / MBC in liquid culture; assay type: cell-based, Enterococcus faecalis; details: for MIC: Enterococcus faecalis, ATCC29212, E. faecalis ATCC 29212, read-out: MIC (minimal inhibitory concentration)
[11] = test system: S. aureus # (non-methicillin-resistant reference strain); test: MIC / MBC in liquid culture; assay type: cell-based, Staphylococcus aureus; details: S. aureus #; for MIC: Staphylococcus aureus, read-out: MIC (minimal inhibitory concentration)
E. faecium VRAR E315 [12] = test: agar diffusion method, inhibition zone; assay type: cell-based, Enterococcus faecium; details: Enterococcus faecium, VRARE315; E. faecium VRAR E315; MH agar, 18 hours at 37° C.; per disk 10 μl crude extract, 50 μg macrolactin, 78 μg erythromycin, 30 μg vancomycin, 10 μg ampicillin
Experimental: as §1

CC[C@H]1OC(=O)[C@H](C)[C@@H](O[C@H]2C[C@@](C)(OC)[C@@H](O)[C@H](C)O2)[C@H](C)[C@@H](O[C@@H]2O[C@H](C)C[C@H](N(C)C)[C@H]2O)[C@](C)(O)C[C@@H](C)C(=O)[C@H](C)[C@@H](O)[C@]1(C)O [Erythromycin, erythromycin]
zone of inhibition at 78 µg/disc (E. faecalis VRAS E305 [1]): 0 mm
zone of inhibition at 78 µg/disc (E. faecalis ATCC 29212 [2]): 25 mm
zone of inhibition at 78 µg/disc (B. cepacia SCV 141 [3]): 0 mm
zone of inhibition at 78 µg/disc [4]: 0 mm
zone of inhibition at 78 µg/disc [5]: 40 mm
zone of inhibition at 78 µg/disc [6]: 0 mm
zone of inhibition at 78 µg/disc (S. aureus DSMZ 1104): 30 mm
MIC (E. faecalis VRAS E305 [7]): 128 µg/mL (≈ 174 µM)
MIC (E. faecium VRAR E315 [8]): 2 µg/mL (≈ 2.73 µM)
MIC (MRSA 3): > 128 µg/mL
MIC (MRSA 2): > 128 µg/mL
MIC (B. cepacia SCV 141 [9]): 128 µg/mL (≈ 174 µM)
MIC (B. cepacia WT139): > 128 µg/mL
MIC (E. faecalis ATCC 29212 [10]): 2 µg/mL (≈ 2.73 µM)
MIC [11]: 0.06 µg/mL (≈ 0.0818 µM)
zone of inhibition at 78 µg/disc (E. faecium VRAR E315 [12]): 25 mm

Gentamycin
MIC (minimal inhibitory concentration) (E. faecalis VRAS E305 [7]): 64 µg/mL
MIC (minimal inhibitory concentration) (E. faecium VRAR E315 [8]): 64 µg/mL
MIC (minimal inhibitory concentration) (MRSA 3): 128 µg/mL
MIC (minimal inhibitory concentration) (MRSA 2): 128 µg/mL
MIC (minimal inhibitory concentration) (B. cepacia SCV 141 [9]): >128 µg/mL
MIC (minimal inhibitory concentration) (B. cepacia WT139): >128 µg/mL
MIC (minimal inhibitory concentration) (E. faecalis ATCC 29212 [10]; E. faecalis ATCC 29212): 32 µg/mL
MIC (minimal inhibitory concentration) [11]: 0.25 µg/mL

CC1(C)S[C@@H]2[C@H](NC(=O)[C@H](N)c3ccccc3)C(=O)N2[C@H]1C(=O)O [Ampicillin, ampicillin]
zone of inhibition at 10 µg/disc (E. faecalis VRAS E305 [1]): 35 mm
zone of inhibition at 10 µg/disc (E. faecalis ATCC 29212 [2]): 32 mm
zone of inhibition at 10 µg/disc (B. cepacia SCV 141 [3]): 0 mm
zone of inhibition at 10 µg/disc [4]: 0 mm
zone of inhibition at 10 µg/disc [5]: 41 mm
zone of inhibition at 10 µg/disc [6]: 0 mm
zone of inhibition at 10 µg/disc (S. aureus DSMZ 1104): 30 mm
MIC (E. faecalis VRAS E305 [7]): 0.5 µg/mL (≈ 1.43 µM)
MIC (E. faecium VRAR E315 [8]): > 128 µg/mL
MIC (MRSA 3): 64 µg/mL (≈ 183 µM)
MIC (MRSA 2): > 128 µg/mL
MIC (B. cepacia SCV 141 [9]): 128 µg/mL (≈ 366 µM)
MIC (B. cepacia WT139): > 128 µg/mL
MIC (E. faecalis ATCC 29212 [10]): 0.5 µg/mL (≈ 1.43 µM)
MIC [11]: 0.06 µg/mL (≈ 0.172 µM)
zone of inhibition at 10 µg/disc (E. faecium VRAR E315 [12]): 0 mm
